# According to PubChem BioAssay (NCI):
#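 Results reflect a 48-hour exposure of cells in 96-well plates to compound at five concentrations. TGI marks complete inhibition of growth.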
# Key:
# Experiment in all cases: NCI anticancer screen, dose series, 48 h
# [1] = test system: IGROV1 ovarian
# [2] = test system: SF-268 CNS
# [3] = test system: PC-3 prostate
# [4] = test system: CAKI-1 renal
# [5] = test system: HT29 colon
# [6] = test system: K-562 leukemia
# [7] = test system: SK-MEL-5 melanoma
# [8] = test system: SK-MEL-28 melanoma
# [9] = test system: LOX IMVI melanoma
# [10] = test system: SK-OV-3 ovarian
# [11] = test system: MDA-MB-231 breast
# [12] = test system: OVCAR-8 ovarian
# [13] = test system: KM12 colon
# [14] = test system: 786-0 renal
# [15] = test system: HCT-15 colon
# [16] = test system: SN12C renal
# [17] = test system: SNB-75 CNS
# [18] = test system: MDA-MB-435
# [19] = test system: U251 CNS
# [20] = test system: SK-MEL-2 melanoma
# [21] = test system: CCRF-CEM leukemia
# [22] = test system: NCI-H460 lung
# [23] = test system: DU-145 prostate
# [24] = test system: SNB-19 CNS
# [25] = test system: NCI-H226 lung
# [26] = test system: OVCAR-3 ovarian
# [27] = test system: BT-549 breast
# [28] = test system: NCI/ADR-RES ovarian
# [29] = test system: SF-295 CNS
# [30] = test system: SW-620 colon
# [31] = test system: MDA-N
# [32] = test system: MOLT-4 leukemia
# [33] = test system: M14 melanoma
# [34] = test system: HL-60(TB) leukemia
# [35] = test system: MCF7 breast
# [36] = test system: RXF 393 renal
# [37] = test system: ACHN renal
# [38] = test system: HCT-116 colon
# [39] = test system: NCI-H23 lung
# [40] = test system: SF-539 CNS
# [41] = test system: HOP-62 NSCLC
# [42] = test system: EKVX NSCLC
# [43] = test system: TK-10 renal
# [44] = test system: A498 renal
# [45] = test system: OVCAR-4 ovarian
# [46] = test system: OVCAR-5 ovarian
# [47] = test system: UACC-257 melanoma
# [48] = test system: HCC-2998 colon
# [49] = test system: A549 NSCLC
# [50] = test system: COLO 205 colon
# [51] = test system: HOP-92 NSCLC
# [52] = test system: UO-31 renal
# [53] = test system: RPMI-8226 leukemia
# [54] = test system: NCI-H522 lung
# [55] = test system: HS 578T breast
# [56] = test system: UACC-62 melanoma
# [57] = test system: MALME-3M melanoma
# [58] = test system: T-47D breast
smiles,measurement,setting,value
CNc1nnc(CNc2ccc(-c3nnc(NC)n3N)cc2)n1N,TGI,[1],> 100 µM
same,TGI,[2],> 100 µM
same,TGI,[3],> 100 µM
same,TGI,[4],> 100 µM
same,TGI,[5],> 100 µM
same,TGI,[6],> 100 µM
same,TGI,[7],> 100 µM
same,TGI,[8],> 100 µM
same,TGI,[9],> 100 µM
same,TGI,[10],> 100 µM
same,TGI,[11],> 100 µM
same,TGI,[12],> 100 µM
same,TGI,[13],> 100 µM
same,TGI,[14],> 100 µM
same,TGI,[15],> 100 µM
same,TGI,[16],> 100 µM
same,TGI,[17],> 100 µM
same,TGI,[18],> 100 µM
same,TGI,[19],> 100 µM
same,TGI,[20],> 100 µM
same,TGI,[21],> 100 µM
same,TGI,[22],> 100 µM
same,TGI,[23],> 100 µM
same,TGI,[24],> 100 µM
same,TGI,[25],> 100 µM
same,TGI,[26],> 100 µM
same,TGI,[27],> 100 µM
same,TGI,[28],> 100 µM
same,TGI,[29],> 100 µM
same,TGI,[30],> 100 µM
same,TGI,[31],> 100 µM
same,TGI,[32],> 100 µM
same,TGI,[33],> 100 µM
same,TGI,[34],> 100 µM
same,TGI,[35],> 100 µM
same,TGI,[36],> 100 µM
same,TGI,[37],> 100 µM
same,TGI,[38],> 100 µM
same,TGI,[39],> 100 µM
same,TGI,[40],> 100 µM
same,TGI,[41],> 100 µM
same,TGI,[42],> 100 µM
same,TGI,[43],> 100 µM
same,TGI,[44],> 100 µM
same,TGI,[45],> 100 µM
same,TGI,[46],> 100 µM
same,TGI,[47],> 100 µM
same,TGI,[48],93.8 µM
same,TGI,[49],> 100 µM
same,TGI,[50],> 100 µM
same,TGI,[51],> 100 µM
same,TGI,[52],> 100 µM
CCOP(=O)(OCC)[C@H]1OC(C)(C)O[C@@H]1CO,TGI,[1],> 100 µM
same,TGI,[2],> 100 µM
same,TGI,[3],> 100 µM
same,TGI,[4],> 100 µM
same,TGI,[53],> 100 µM
same,TGI,[54],> 100 µM
same,TGI,[5],> 100 µM
same,TGI,[55],> 100 µM
same,TGI,[7],> 100 µM
same,TGI,[8],> 100 µM
same,TGI,[9],> 100 µM
same,TGI,[56],> 100 µM
same,TGI,[10],> 100 µM
same,TGI,[11],> 100 µM
same,TGI,[12],> 100 µM
same,TGI,[13],> 100 µM
same,TGI,[14],> 100 µM
same,TGI,[15],> 100 µM
same,TGI,[16],> 100 µM
same,TGI,[18],> 100 µM
same,TGI,[19],> 100 µM
same,TGI,[20],> 100 µM
same,TGI,[21],> 100 µM
same,TGI,[22],> 100 µM
same,TGI,[23],> 100 µM
same,TGI,[24],> 100 µM
same,TGI,[26],> 100 µM
same,TGI,[27],> 100 µM
same,TGI,[28],> 100 µM
same,TGI,[29],> 100 µM
same,TGI,[30],> 100 µM
same,TGI,[31],> 100 µM
same,TGI,[32],> 100 µM
same,TGI,[33],> 100 µM
same,TGI,[34],> 100 µM
same,TGI,[35],> 100 µM
same,TGI,[37],> 100 µM
same,TGI,[38],> 100 µM
same,TGI,[39],> 100 µM
same,TGI,[57],> 100 µM
same,TGI,[40],> 100 µM
same,TGI,[41],> 100 µM
same,TGI,[42],> 100 µM
same,TGI,[43],> 100 µM
same,TGI,[44],> 100 µM
same,TGI,[58],> 100 µM
same,TGI,[45],> 100 µM
same,TGI,[46],> 100 µM
same,TGI,[47],> 100 µM
same,TGI,[48],> 100 µM
same,TGI,[49],> 100 µM
same,TGI,[50],> 100 µM
same,TGI,[51],> 100 µM
